Assay results taken from US8486916B2, “Medicine, food and drink or feed containing sphingomyelin” (Megmilk Snow Brand Co., Ltd., priority 2005, dated 2013).
Where two headings read alike, the source gives them in different places.

Legend:
[1] = tested on: Male Wistar rats; assay: Effect of preventing drunken sickness (hangover) after ethyl alcohol administration; assay type: in vivo; conditions: 2 mg/kg oral together with 10 ml/kg of 40 (v/v) % ethyl alcohol
Source text: Male Wistar rats were preliminarily raised for 1 week. Then, the rats of 110 to 120 g in body weight were used. The rats were fasted overnight before the experiment and given neither food nor water during the experiment. The rats were divided into an alcohol single administration group (control group) and a sphingomyelin administration group. Each group contained 5 individuals. […] After administration, the rats were observed until they recovered from drunken symptoms.

[2] = tested on: lymphocytes from human milk; assay: Test on promotion of secretory IgA production; assay type: cell-based; conditions: 3 μg added to 3 ml Petri dish; after 7 days
Experimental: 5 ml of aseptically collected human milk was diluted twice with a 10 mM phosphate-buffered saline (PBS, pH 7.2) containing 150 mM NaCl and then layered in a test tube containing 5 ml of a separation solution (mixed solution of 33.4% Conray 400 (manufactured by Daiichi Pharmaceutical Co., Ltd.) and 9% Ficoll (manufactured by Pharmacia) at a ratio of 5:12). After centrifugation at 400×G for 30 minutes, the intermediate layer in which lymphocytes were gathered was collected with a Pasteur pipette. The lymphocytes were dispersed and washed in 10 ml of PBS and then centrifuged at 150×G for 10 minutes. This washing procedure was repeated three times. Then, 12 ml of an RPMI-1640 medium containing insulin (10 μg/ml) and transferrin (5 μg/ml) was added thereto, and the mixture was dispensed in an amount of 3 ml/Petri dish into 3 Petri dishes (A; […]

[3] = tested on: enteropathogenic E. coli O-157; assay: Test I on prevention of enteropathogenic E. coli O-157 infection; assay type: in vivo; conditions: BALB/c germ-free mice, 5 mg/day oral
Experimental: Test I on prevention of enteropathogenic E. coli O-157 infection
The intake of sphingomyelin was 5 mg/day. On the 3rd day from the start of taking, the mice were infected with enteropathogenic E. coli O-157 by oral administration at a dose of 8.5×10^6 cfu/mouse. After infection, the mice were also allowed to orally take sphingomyelin on a daily basis. […] The survival rate of the […] depending on the number of days after the administration of enteropathogenic E. coli O-157 is shown in Table 7. As is evident from the results of Table 7, the survival rate of the germ-free mice was enhanced by the administration of sphingomyelin.

[4] = tested on: enteropathogenic E. coli O-157; assay: Test II on prevention of enteropathogenic E. coli O-157 infection; assay type: in vivo; conditions: mice, 8th day after administration of E. coli
Experimental: Sphingomyelin was tested for its effect of preventing enteropathogenic E. coli O-157 infection according to the method described in “Test Example 2” of Japanese Patent Laid-Open No. 2001-2704.
Test II on prevention of enteropathogenic E. coli O-157 infection
The survival rate of mice on the 8th day after the administration of E. coli was measured in the same way as in Test Example 10 except that the intake of sphingomyelin was changed to 0.1 to 10 mg/day.

[5] = tested on: EAE rats; assay: Effect of sphingomyelin on EAE rats; assay type: in vivo, Lewis rats; conditions: for Cumulative score of symptoms: six-grade score 0-5
Experimental: A therapeutic effect on EAE rats serving as models of multiple sclerosis, one of demyelinating diseases, will be shown. The hind footpad of Lewis rats (female, 6 week old) in groups each containing 5 individuals was immunized with a mixture of syngeneic rat brain homogenates with an equal amount of a complete Freund adjuvant (manufactured by Difco) as an antigen for inducing EAE at a dose of 80 mg in terms of the amount of the brain homogenates. Sphingomyelin was intraperitoneally administered at a dose shown in Table 9 for 18 days from the immunization day. The measurement of body weights and the observation of EAE symptoms were performed every day. […] The therapeutic effect was assessed based on the cumulative score of the symptoms in each group. […] Only a saline was administered to the control group.

[6] = tested on: plaque-forming cells against the sheep red blood cells; assay: Inhibitory effect on antibody production (IgM PFC against sheep red blood cells); assay type: in vivo, Lewis rats; conditions: 2 mg/kg
Experimental: A mechanism under which sphingomyelin inhibits the onset of EAE was studied. […] The spleen was excised from each rat on the 18th day, and a single cell suspension was aseptically prepared therefrom. The red blood cells were removed by a hemolysis method. After washing with an RPMI-1640 medium, a cell suspension was prepared at a cell density of […]. The number of plaque-forming cells against the sheep red blood cells was counted according to the method of Jerne and used as the number of IgM PFC. From the results shown in Table 11, it was confirmed that sphingomyelin has inhibitory activity against antibody production.

[7] = tested on: carrageenin-induced edema; assay: Carrageenin-induced footpad edema method; assay type: in vivo, Wistar rats; conditions: 100 mg/kg oral; 5 hours after λ-carrageenin injection
Experimental: The anti-inflammatory effect of sphingomyelin was tested by a carrageenin-induced footpad edema method. Specifically, a test subject shown in Table 15 was suspended in an aqueous solution containing 0.5% carboxymethylcellulose and orally administered (100 mg/kg) to male Wistar rats (body weight: 110 to 130 g, 8 individuals per group) according to the method of Winter et al. (Proceedings of the Society for Experimental Biology & Medicine, vol. 111, pp. 554, 1962). […] An aqueous solution containing 0.5% carboxymethylcellulose and no test substance was administered to rats in a control group. A rate of increase in footpad volume (V0) attributed to the injection of λ-carrageenin was measured in the control group in the same way as above. An carrageenin-induced edema inhibition rate (%) was calculated according to the calculation formula: (V0−V1)×100/V0 and used as the anti-inflammatory activity of the test substance. A higher value of this inhibition rate indicates higher anti-inflammatory activity.

[8] = tested on: enteropathogenic E. coli; conditions: SD rats
[9] = 1 mg/kg intraperitoneal for 18 days
[10] = 2 mg/kg intraperitoneal for 18 days

sphingomyelin was tested, and the symptoms after administration [1] was “only staggering gait”, the “time to recover from drunken symptoms” value ([1]; control 5 hours) was no more than 1 h and the “IgA content in the culture solution” value [2] was 3.11 µg/mL. For the same substance, the Survival rate ([3]; 0 days after administration of E. coli) was 100%, the Survival rate ([3]; 2 days after administration of E. coli) was 100% and the Survival rate ([3]; 4 days after administration of E. coli) was 100%. The Survival rate ([3]; 6 days after administration of E. coli) was 80%, the Survival rate ([3]; 8 days after administration of E. coli) was 70% and the Survival rate ([4]; intake 0.1 mg/day, control 35) was 35%. The Survival rate ([4]; intake 1.0 mg/day) was 65%, the Survival rate ([4]; intake 5.0 mg/day) was 70% and the Survival rate ([4]; intake 10.0 mg/day) was 70%. For the same substance, the “Cumulative score of symptoms with respect to saline-administered control group defined as 100%” value [5, 9] was 18%, the Frequency of onset [5, 9] was 2/5 and the “The average number of days required for onset” value [5, 9] was 15.2. For the same substance, the “Cumulative score of symptoms” value [5, 9] was 10, the “Cumulative score of symptoms with respect to saline-administered control group defined as 100%” value [5, 10] was 19% and the Frequency of onset [5, 10] was 2/5. For the same substance, the “The average number of days required for onset” value [5, 10] was 14.5, the “Cumulative score of symptoms” value [5, 10] was 11 and the “Average IgM/10^3 spl with respect to saline-administered control group defined as 100%” value [6] was 20%. For the same substance, the “Average IgM/10^3 spl” value ([6]; spleen cells on the 18th day, saline 138) was 27, the Inhibition rate [7] was 40.2% and the Incidence of diarrhea ([8]; intake 0.1 mg/day in feed, control 100) was 100%. For the same substance, the Incidence of diarrhea ([8]; intake 1.0 mg/day in feed) was 40%, the Incidence of diarrhea ([8]; intake 5.0 mg/day in feed) was 30% and the Incidence of diarrhea ([8]; intake 10.0 mg/day in feed) was 10%.
